Experimental data reported in patent publication US9821072B2, “Activated neurotensin molecules and the uses thereof” (priority 2014, dated 2017).

Experiments:
[1] = system: NMRI mice with yeast-induced hyperthermia; assay: Antipyretic effect in yeast-induced hyperthermia in NMRI mice; format: in vivo, mouse
Description: In addition to eliciting a strong hypothermic effect when injected intravenously in naïve mice, we assessed the antipyretic effect of activated NT drugs of the invention in mice with yeast-induced hyperthermia. Briefly, rectal temperature of male NMRI mice was first measured 14 hours before the test using a rectal probe (Baseline 1, two independent measurements at a minimum of 5 min interval). Mice were then injected subcutaneously with either a yeast suspension (512 mg/kg), to induce a hyperthermic response, or hydroxypropylmethylcellulose (HPMC) in saline 0.9%. Fourteen hours later, rectal temperature of the mice was measured again (Baseline 2, two independent measurements at a minimum of 5 min interval) in order to assess the effect of yeast or HPMC injection on baseline temperature.

[2] = In vitro blood stability in freshly collected mouse blood (LC-MS/MS); format: in vitro ADME, Swiss (CD-1) mouse; details: whole blood, 2 μM, 37° C.
[3] = system: mice; assay: Writhing test (acetic acid, acute visceral pain) in mice; format: in vivo, mouse; details: 30 min before acetic acid i.p.
Description: In order to evaluate the antinociceptive potential of activated NT drugs, compound XIV was tested in an experimental pain model in mice. The writhing test was used as a model of acute visceral pain to assess the effect of compound XIV after intravenous administration. Given that the time to maximal decrease in body temperature in mice receiving compound XIV was around 45 min post-injection, we assumed similar pharmacodynamic kinetics in this pain model. Mice first received intravenous (bolus) injection of compound XIV at increasing dose levels, followed 30 min thereafter by intraperitoneal injection of acetic acid 0.7% (10 mL/kg). In control mice, intraperitoneal injection of acetic acid produces characteristic and quantifiable abdominal stretches (elongation of the body and extension of forelimbs) as early as 2-3 minutes following injection and reaching a peak between 5 and 15 min following injection. This time window was therefore used to evaluate the number of abdominal stretches (writhes counted over 10 min observation) in mice administered with either saline or compound XIV at 0.5, 1 or 5 mg/kg eq. NT.

[4] = system: BBB (brain); parameters: species or system C57Bl/6 mice; details: mouse, in vivo
Description: (§1) Transport kinetics at the BBB and blood-retina barrier (BRB) of the conjugates of the invention was assessed using an in situ brain perfusion technique in adult male C57Bl/6 mice. Radiolabeled activated NT compounds were obtained either by coupling [3H]Tyr3-NT with the AG or by coupling a tritiated AG to NT molecules. NT was radiolabeled by catalytic dehalogenation of iodoTyr3-NT using tritium gas while AG was radiolabeled by coupling a tritiated propionyl succinimide ester to its N-terminus. The specific radioactivity (SRA) was typically in the range of 50 Ci/mmol. The total quantity of radioactivity prepared for each synthesis was generally between 100 and 1000 μCi.
(§2) The in situ brain perfusion technique enables total control of the composition of the artificial perfusate in order to maintain the cells and vascularization of the brain under normal physiological and anatomical conditions within the animal, without the disrupting factor of systemic distribution. […]
(§3) In situ brain perfusion of the radiolabeled compounds of the invention was performed during 120 s with a perfusate flow rate of 2 mL/min. The initial transport was expressed as the transfer coefficient Kin (relationship between distribution volume of the test compound, corrected for the vascular volume, and cerebral perfusion time).

[5] = system: blood-retina barrier (BRB), eye; parameters: species or system C57Bl/6 mice; details: mouse, in vivo
Description: as §1, §2, §3

In the case of `CCC(=O)N[C@@H]1CSSC[C@@H](C(=O)NCCOCCOCCOCCOCCOCCOCCC(=O)N[C@@H](CCCNC(=N)N)C(=O)N[C@@H](CCCNC(=N)N)C(=O)N2CCC[C@H]2C(=O)N[C@@H](Cc2ccc(O)cc2)C(=O)N[C@H](C(=O)N[C@@H](CC(C)C)C(=O)O)[C@@H](C)CC)NC(=O)CN(C)C(=O)[C@H](CCCNC(=N)N)NC(=O)[C@H](CC(C)C)NC(=O)[C@H](CCCNC(=N)N)NC(=O)[C@@H]2CCCCN2C(=O)[C@H](CCSC)NC1=O` [Compound XIV, Pr-cMPipRLRSarC-PEG6-RRPYIL-OH], the “further decrease of body temperature” value ([1]; 6 mg/kg eq. NT i.v.) is reported as 4.7 °C, the “maximal antipyretic effect compared to Baseline 2 or saline” value ([1]; as of 2 mg/kg eq. NT i.v., 15 min post-injection) is reported as −2.2 °C and the half-life [2] is reported as 1.6 h. For the same compound, the “antinociceptive effect on writhe count” value ([3]; 0.5 mg/kg eq. NT i.v.) was “no effect”, the “reduction of the writhe count” value ([3]; 1 mg/kg eq. NT i.v.) was 50% and the “reduction of the writhe count” value ([3]; 5 mg/kg eq. NT i.v.) was 64%. For the same compound, the “transfer coefficient Kin in the brain” value [4] was 0.000365 mL/s/g and the “transfer coefficient Kin in the eye” value [5] was 0.00033 mL/s/g.
